Experimental data: US10668039B2, “Methods for treatment of adenoid cystic carcinoma” (THE CHILDREN'S MEDICAL CENTER CORPORATION, priority 2016, dated 2020)

How the values were obtained:
[1] = system: c-myb:GFP; assay: c-myb:GFP zebrafish blastomere embryo culture chemical screen; assay type: cell-based; details: approximately 30 μM, 2 days
Procedure: The inventors have developed an embryo culture system in which embryos bearing a c-myb:GFP transgenic reporter were dissociated during sphere stage at 4 hours post fertilization (hpf), and cultured in gelatin-coated 384 well plates with chemicals for 2 days until imaging for fluorescent reporter activity (FIG. 1). This fluorescent transgene is expressed in a similar pattern to the endogenous gene. […] This transgene responds to inducers of hematopoiesis, as myb is a marker of hematopoietic stem cells (HSCs).
The image analysis software (ImageJ and MatLab) was used to identify hits that downregulate c-myb:GFP zebrafish embryo cultures by a z-score less than […] and more than 70% downregulation. Hits were assessed by eye and scored for morphology. Toxic compounds that caused poor embryoid body (EB) formation were assessed a 4.
Zebrafish cell culture: Zebrafish embryo cultures were adapted from Xu (2013). Dissociated blastomere cells were grown in medium composed of 85% LDF medium, 5% heat inactivated FBS, and 10% zebrafish day 1 embryo extract. LDF medium contains 50% Leibowitz's L-15 (Invitrogen), 20% DMEM (Invitrogen), and 30% DMEM/F-12 (Invitrogen), supplemented with 0.018% sodium bicarbonate, 15 mM HEPES (Invitrogen), 1% L-Glutamine (Invitrogen), 10 nM sodium selenite (Sigma-Aldrich), 1% N2 (Invitrogen), 2% B27 (Invitrogen), 1% Penicillin-Streptomycin (Invitrogen), and 0.2% Primocin (InvivoGen).
Screening procedures: Two 384-well plates were coated with 0.1% gelatin for each chemical library plate. Males of the c-myb:GFP transgenic line were set up overnight with casper females and kept separated until morning when they were mixed for mating. Embryos were washed twice with E3 embryo water and treated with pronase to remove chorions. Dechorionated embryos were washed with E3 embryo water and collected into tubes containing media. Embryos were disassociated by shaking ˜10 times and were filtered through a 40 μm nylon mesh filter. Resulting single cells were diluted with medium and aliquoted 30 μl per well into the 384-well plates at approximately 2 embryo equivalents per well. Chemicals were dispensed immediately afterwards with an Agilent Bravo robot. Chemicals from the libraries were diluted 300 times with LDF medium and were aliquoted 10 μl per well for a final concentration of approximately 33 μM. […] Cells were cultured in a 28° C. incubator with 5% CO2. Two days later, cells were imaged by a Yokogawa Cell Voyager 7000 imager. Images were analyzed by ImageJ and MatLab and confirmed by eye. […]
Culture of dissociated blastomere cells: Stage-matched zebrafish blastomeres were dissociated at 4 hpf and grown in medium composed of 85% LDF medium, 5% FBS, and 10% embryo extract. LDF medium contains 50% Leibowitz's L-15 (Invitrogen), 20% DMEM (Invitrogen), and 30% DMEM/F-12 (Invitrogen), supplemented with 2% B27 (Gibco), 15 mM HEPES (Gibco), 1% L-glutamine (Gibco), 1% N2 (Gibco), 10 nM sodium selenite (Sigma), 100 ug/mL piperacillin (Sigma), 10 ug/mL ciprofloxacin (GenHunter), and 0.018% sodium bicarbonate (Gibco). Embryo extract was made by homogenizing 24 hpf wildtype AB embryos in HBSS (Gibco).

[2] = system: ACC patient derived xenografts; assay: ACC xenotransplantation trials, average across ACCx6, ACCx9 and ACCx11; assay type: in vivo, nude mice; parameters: concentration or dose not given beside the values; details: average of ACCx6, ACCx9, ACCx11
Procedure: Xenograft experiments: To generate ACC xenografts, 1×10^6 viable ACC cells were injected into the flank of female nude (Foxn1nu) mice for in vivo drug testing of ACCx6, ACCx9, and ACCx11 lines. Once tumors were visible, the mice were randomized to receive vehicle control or drug until reaching a […] tumor volume of 1,000 mm3. The mice in each group were treated with an oral flat dose five times weekly (po qdx5) for four cycles (two days off between cycles). The exact dosing was determined based on an initial MTD tolerability study and published literature reports. Five mice per group were treated for ACCx6 and ACCx9, and four mice per group were treated for ACCx11 (five mice in the control ACCx11 group), and the tumor volumes were quantified. Mice were treated with a flat dose of 0.2 mL orally of: 30 mg/mL isotretinoin; 40 mg/mL fenretinide; 4 mg/mL ATRA for ACCx6 and ACCx11 or 3 mg/mL ATRA for ACCx9. Mouse procedures used in this study were approved by the IACUC at South Texas Accelerated Research Therapeutics (San Antonio, Tex.).
Primagraft experiments: For in vivo drug testing, ACC tumor fragments from host animals were implanted subcutaneously into the flank of nude mice (CRL: ATH/NU). Once tumors reached 125-250 mm3, mice were randomized to receive vehicle or drug diluted in 10:90 DMSO:10% hydroxypropyl-beta-cyclodextrin orally until controls reached a tumor volume endpoint of 1-2 cm3 (4-9 mice per group: x5M1 and x6, 4 treated vs. 9 vehicle controls; x9, 4 treated vs. 5 vehicle controls; x11, 5 treated vs. 8 vehicle controls). Mice were treated with ATRA (ACC x6 and x11: 4 mg/mL, 0.2 mL flat dose; ACC×9: 3 mg/mL, 0.2 mL flat dose) or isotretinoin (30 mg/mL, 0.2 mL flat dose). Tumor growth was monitored and mice weighed twice weekly and studies ended when final group reached tumor volume endpoint. No statistical methods were employed to determine the sample size, and no blinding of investigators was performed. After long-term tumor growth inhibition studies were completed, the ATRA treated mice stopped receiving treatment and were maintained longer as indicated to monitor tumor maintenance after treatment cessation. For long-term tumor growth inhibition studies, ACC x6, x9, and x11 models were used and primagrafts collected at the completion of the study. Short-term kinetics studies were also undertaken with ACC x9 and x5M1 primagrafts involving 3 day ATRA treatments. All animal procedures used in this study were approved by the IACUC at START, San Antonio, Tex.

[3] = Table 2, c-myb:GFP embryo cultures, average across two plates
[4] = Table 3, GFP signal in blastomere embryo culture screen

Structure (SMILES) | Z-Score [1, 3] | Z-Score [1, 4] | Average tumor growth inhibition across the three models [2] | Average tumor growth inhibition across the three models ([2]; listed as all-trans retinoic acid (ATRA)) | Average tumor growth inhibition across the three models ([2]; listed as fenretinide) | Average tumor growth inhibition across the three models ([2]; listed as isotretinoin)
CC(C=CC1=C(C)CCCC1(C)C)=CC=C/C(C)=C/C(=O)O [ATRA, (E)-3,7-dimethyl-9-(2,6,6-trimethyl-1-cyclo-hexen-1-yl)-2,4,6,8-nonatetraenoic acid] | −5.729 | −5.729 | 88% | 88% | – | –
CC1=C(/C=C/C(C)=C/C=C/C(C)=C/C(=O)Nc2ccc(O)cc2)C(C)(C)CCC1 [Fenretinide, retinoic acid p-hydroxyanilide] | −1.582 | −1.582 | 53% | – | 53% | –
CC1=C(/C=C/C(C)=C/C=C/C(C)=C\C(=O)O)C(C)(C)CCC1 [Isotretinoin, 13-cis-retinoic acid] | −5.054 | −5.054 | 86% | – | – | 86%
